# Laboratory results from patent US11433086B2, “Combination of T-cell checkpoint inhibitors with inhibitors of e-selectin or CXCR4, or with heterobifunctional inhibitors of both E-selectin and CXCR4” (GlycoMimetics, Inc., priority 2016, dated 2022).
# What was measured:
# [1] = test system: T-Cells (CD4+ and CD8+), Tregs, MDSCs and checkpoint markers in tumors and spleens; assay: Flow cytometry immune profile of tumors and spleens, Day 15; assay type: in vivo, Balb/c mice
# Protocol: The anti-cancer activity of an anti-mPD-L1 antibody (10F.9G2) and GMI-1359 was compared to a rat isotype control antibody against indeterminate subcutaneous CT26.WT carcinoma xenografts in female Balb/c mice. An immune profile of each mouse was determined by sampling tumors and spleens, staining for several markers of an active immune response, and detecting the levels of these markers via flow cytometry. Flow cytometry markers included: T-Cells (CD4^+ and CD8^+), Regulatory T-Cells (Tregs). (CD4^+/CD25^+/FoxP3^+), MDSCs (CD11b^+/Gr1^+) and co-expression of CCR7^+ and CD62^+ added to the existing CD4/CD8 panel.
# At 24 hours after the final dose of GMI-1359 (Day 15), all mice from Groups 7-12 were euthanized for tumor and spleen collection. All mice were euthanized via over exposure to carbon dioxide. The tumors and spleens were excised and placed in a labeled 5 mL sampling tube filled with cold PBS and placed on ice. The tumors and spleens were provided to the Molecular Imaging's in vitro group for flow cytometric analysis.
# For tumor dissociation, the tumor was weighed and <1 g tissue was processed according to Miltenyi Tumor Dissociation Protocol 2.2.1, Dissociation of soft tumors, before proceeding to the red blood cell lysis.
# For spleen dissociation, the plunger on a 3 mL syringe was used to crush the spleen in 10 mL DPBS until organ was well broken up and the DPBS became cloudy with cells. The cell suspension was then filtered with a 70 μm strainer on a 50 mL tube and washed with 20 mL DPBS. The suspension was then centrifuged for 7 minutes at 300 rcf and the supernatant was discarded before proceeding the red blood cell lysis.
# For the red blood cell lysis, each of the tumor and spleen samples were re-suspended in 3 mL ACK Lysis Buffer and then incubated for 5 minutes at room temperature. The suspension was diluted by adding 10 mL DPBS, and then the cells were collected via centrifugation for 5 minutes at 300 rcf. The cells were again re-suspended in 30 mL DPBS and counted. The suspension was centrifuged again, and the supernatant was discarded before proceeding to the Fc block.
# For the Fc block, each of the tumor and spleen samples were re-suspended at 1E+06 cells per 100 μL in Flow Cytometry Staining buffer with 1 μL Fc block per 1E+06 cells. The suspensions were incubated for 5 minutes at room temperature, then centrifuged for 5 minutes at 300 rcf, and the supernatant was removed before proceeding to surface staining.
# For the surface staining, the following antibody dilutions were prepared, 50 μL per reaction in Flow Cytometry Staining Buffer (except FoxP3):
# For surface staining, the tumor and spleen cells were re-suspended at 1E+06 cells per 50 μL. Each of the 50 μL cell suspensions containing 1E+06 cells was added to 50 μL antibodies diluted in staining buffer in round-bottom 96-well plate. The plate was incubated for 30 minutes in the dark at room temperature on the orbital shaker, setting 2.5. The samples were diluted by adding 200 μL Flow Cytometry Staining Buffer and then centrifuged for 5 minutes at 300 rcf. The supernatant was aspirated and the cells were washed wash by re-suspending in 250 μL Flow Cytometry Staining Buffer and spinning. If staining for intracellular markers, after washing, the sample was then prepared according to the intracellular staining procedure described below. The samples were then re-suspended in 250 μL Flow Cytometry Staining Buffer and were ready for Flow Cytometry Analysis.
# When staining for intracellular markers, following the wash step, the cells were re-suspended in 200 μL FoxP3 Fixation/Permeabilization working solution and incubated for 30 minutes in the dark at room temperature. The samples were then centrifuged at 400 rcf for 5 minutes at room temperature, then the supernatant was discarded. 200 μL 1× permeabilization buffer was added to each well. The samples were centrifuged at 400 rcf for 5 minutes at room temperature, then the supernatant was discarded. […]
# [2] = Assessment of side effects in CT26.WT tumor-bearing mice (body weight, mortality, necropsy); assay type: in vivo
# Protocol: Animals were weighed on each day of treatment. Individual body weights were recorded 3 times weekly. Treatment-related weight loss in excess of 20% was considered unacceptably toxic. In this report, a dosage level is described as tolerated if treatment-related weight loss (during and two weeks after treatment) is <20% and mortality during this period in the absence of potentially lethal tumor burdens is ≤10%. FIG. 6 provides a graph of the percent mean body weight change for the 12 experimental groups.
# Upon death or euthanasia, all animals were necropsied to provide a general assessment of potential cause of death and perhaps target organs for toxicity. The presence or absence of metastases was also noted. Remarkable observations of clinical signs and necropsy findings were tabulated as well as individual and group toxicity findings.
# This is an individual toxicity parameter.
structure (smiles),measurement,setting,value
CCC1CC(C(=O)NCCNCc2ccc(CN3CCCNCCNCCCNCC3)c(Br)c2)CC(OC2OC(CO)C(O)C(O[C@@H](CC3CCCCC3)C(=O)O)C2NC(C)=O)C1OC1OC(C)C(O)C(O)C1O (stereo partly shown) [GMI-1359],average percentage of CCR7^+/CD62L^+ cells within the CD8^+ T-cell population in spleens,"[1]; spleens, Day 15, Groups 8-12",1.00%
same,average percentage of CD4^+ T-cells expressing CCR7 but not CD62L in spleens,"[1]; spleens, Day 15, Groups 8-12",33.36%
same,average percentage of CD4^+ T-cells expressing CD62L but not CCR7 in spleens,"[1]; spleens, Day 15, Groups 8-12",5.42%
same,average percentage of CD4^+ T-cells expressing both CCR7 and CD62L in spleens,"[1]; spleens, Day 15, Groups 8-12",2.05%
same,average percentage of CD4^+ cells in spleens,"[1]; spleens, Day 15, Groups 8-12",13.43%
same,average percentage of CD8^+ T-cells expressing CCR7 but not CD62L in spleens,"[1]; spleens, Day 15, Groups 8-12",27.95%
same,average percentage of CD8^+ T-cells expressing CD62L but not CCR7 in spleens,"[1]; spleens, Day 15, Groups 8-12",2.94%
same,average percentage of CD8^+ cells in spleens,"[1]; spleens, Day 15, Groups 8-12",8.77%
same,average percentage of MDSCs in spleens,"[1]; spleens, Day 15, Groups 8-12",3.70%
same,average percentage of Tregs in spleens,"[1]; spleens, Day 15, Groups 8-12",10.00%
same,average percentage of cells expressing CTLA-4 in spleens,"[1]; spleens, Day 15, Groups 8-12",12.31%
same,average percentage of cells expressing PD-1 in spleens,"[1]; spleens, Day 15, Groups 8-12",5.53%
same,average percentage of cells expressing PD-L1 in spleens,"[1]; spleens, Day 15, Groups 8-12",81.50%
same,"percentage of CD4^+/CCR7^+/CD62L^+ cells in spleens, change","[1]; spleens, Day 15, compared to vehicle, GMI-1359 or isotype control antibody, respectively",did not
same,average percentage of (CD4^+) cells expressing CD62L but not CCR7 in tumors,"[1]; tumors, Day 15, Groups 8-12",31.43%
same,average percentage of CCR7^+/CD62L^+ cells within the CD8^+ T-cell population in tumors,"[1]; tumors, Day 15, Groups 8-12",25.84%
same,average percentage of CD4^+ T-cells expressing both CCR7 and CD62L in tumors,"[1]; tumors, Day 15, Groups 8-12",25.32%
same,average percentage of CD8^+ cells in tumors,"[1]; tumors, Day 15, Groups 8-12",15.61%
same,average percentage of cells expressing CTLA-4 in tumors,"[1]; tumors, Day 15, Groups 8-12",42.80%
same,average percentage of cells expressing PD-1 in tumors,"[1]; tumors, Day 15, Groups 8-12",23.39%
same,average percentage of cells expressing PD-L1 in tumors,"[1]; tumors, Day 15, Groups 8-12",34.44%
same,average percentage of myeloid-derived suppressor cells (MDSCs) in tumors,"[1]; tumors, Day 15, Groups 8-12",2.66%
same,average percentage of regulatory T-cells (Tregs) in tumors,"[1]; tumors, Day 15, Groups 8-12",2.93%
same,detection of CD4^+/CCR7^+/CD62L^− and CD8^+/CCR7^+/CD62L^− populations in tumor samples,"[1]; tumors, Day 15, Groups 8-12",Neither CD4^+/CCR7^+/CD62L^− nor CD8^+/CCR7^+/CD62L^− populations were detected
same,percentage of CD8^+ T-cells expressing CD62L but not CCR7 in tumors,"[1]; tumors, Day 15, Groups 8-12",25.65%
same,average percentage of CD4^+ cells in tumors,"[1]; tumors, Day 15, Groups 8-12 (GMI-1359 40 mg/kg IP Days 3-14, antibody 10 mg/kg IP Days 3,6,10,13)",7.02%
same,percentage of Treg among tumor infiltrating cells (summary comparison),"[1]; tumors, Day 15, groups 8, 10, 12, saline group 7 3.3%",2.9%
same,mean weight gain during the treatment regimen,[2]; Groups 2-6,16.8%
same,treatment-related mortality,[2]; Groups 2-6,no treatment-related mortality
same,weight loss associated with treatment,[2]; Groups 2-6,No weight loss
same,tolerance of treatment,"[2]; Groups 2-6: GMI-1359 40 mg/kg IP QDx20, antibody 10 mg/kg IP Days 3,6,10,13,17",well tolerated
same,mean weight gain during the treatment regimen,[2]; Groups 8-12,7.0%
same,treatment-related mortality,[2]; Groups 8-12,no treatment-related mortality
same,weight loss associated with treatment,[2]; Groups 8-12,No weight loss
same,necropsy findings,"[2]; Groups 8-12, Day 15",unremarkable
same,tolerance of treatment,"[2]; Groups 8-12: GMI-1359 40 mg/kg IP QDx12, antibody 10 mg/kg IP Days 3,6,10,13",well tolerated
same,"tolerance of treatment, summary",[2]; summary over both regimens / all groups,well tolerated
